From ChEMBL document CHEMBL5108035, “Acriflavine, an Acridine Derivative for Biomedical Application: Current State of the Art” (J Med Chem, 2022)

Columns and labels:
Ovarian cancer cell line = assay: Anticancer activity against patient-derived human Ovarian tumor cells assessed as tumor growth inhibition incubated for 72 hrs by FMCA assay; format: functional, cell-based
[1] = Anticancer activity against patient-derived human Colorectal tumor cells assessed as tumor growth inhibition incubated for 72 hrs by FMCA assay; format: functional, cell-based; conditions: Colorectal cancer cell
Mahlavu = assay: Cytotoxicity against human Mahlavu cells assessed as inhibition of cell viability incubated upto 72 hrs by MTT assay; format: functional, cell-based
[2] = Anticancer activity against patient-derived human CLL tumor cells assessed as tumor growth inhibition incubated for 72 hrs by FMCA assay; format: functional, cell-based; conditions: CLL cell
[3] = Cytotoxicity against patient-derived human mononuclear cells assessed as cell growth inhibition incubated for 72 hrs by FMCA assay; format: toxicity, cell-based, Mononuclear cell line

With `CCc1c2c(nc3ccc(OC(=O)N4CCC(N5CCCCC5)CC4)cc13)-c1cc3c(c(=O)n1C2)COC(=O)[C@]3(O)CC` [IRINOTECAN] the IC50 (Ovarian cancer cell line) was 75.3 µM and the IC50 [1] was 89.6 µM.
With `CNC(=O)c1cc(Oc2ccc(NC(=O)Nc3ccc(Cl)c(C(F)(F)F)c3)cc2)ccn1` [SORAFENIB] the IC50 (Mahlavu) was 13.4 µM.
`O=c1[nH]cc(F)c(=O)[nH]1` [FLUOROURACIL] showed an IC50 (Ovarian cancer cell line) of 563 µM, an IC50 [2] of 658 µM and an IC50 at 72 h [3] of 430 µM. It also gave an IC50 [1] of 755 µM.
